The results in this text go back to patent US20260226068A1, “IMIDAZOTRIAZINE IL-17A MODULATORS AND USES THEREOF” (DICE ALPHA, INC., priority 2023, published 2026).

Structures are written as SMILES.

The target of one assay is T1, IL-17A/A (Homo sapiens, UniProt Q16552).
T1 construct: purchased Genscript Z03228
T1 sequence (Q16552 24-155): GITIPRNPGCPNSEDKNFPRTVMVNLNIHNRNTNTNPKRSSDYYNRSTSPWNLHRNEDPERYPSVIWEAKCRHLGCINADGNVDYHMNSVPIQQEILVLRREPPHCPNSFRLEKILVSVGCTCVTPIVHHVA
Put plainly: IL-17A/A HEK-Blue cell assay (SEAP reporter). Type of assay: cell-based. The note with it: HEK-Blue IL-17A reporter cells, IL17A/A 5 ng/mL, 20 hours, SEAP read at A630; read-out: HEK-Blue IL17AA (IC50 for IL-17A/A inhibition).

Another assay deals with T2, IL-17A/F (Homo sapiens, UniProt Q16552+Q96PD4).
T2 construct: purchased R&D Systems
T2 sequence (Q16552 24-155): T1 sequence (Q16552 24-155)
T2 sequence (Q96PD4 31-163): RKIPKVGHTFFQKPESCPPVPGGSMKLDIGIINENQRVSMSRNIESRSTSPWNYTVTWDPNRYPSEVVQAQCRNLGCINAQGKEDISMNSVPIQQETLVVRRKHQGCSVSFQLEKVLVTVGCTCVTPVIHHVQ
Put plainly: IL-17A/F HEK-Blue cell assay (SEAP reporter). Conditions: HEK-Blue IL-17A reporter cells, IL17A/F 5 ng/mL, 20 hours, SEAP read at A630; read-out: HEK-Blue IL17AF (IC50 for IL-17A/F inhibition). Type of assay: cell-based.

Consider `CCn1nccc1C(=O)N[C@H](c1cn2nc(C[C@@H]3CCCNC3=O)c(C3CCOCC3)nc2n1)C1CCC(F)(F)CC1` [Compound 380], for which the IC50 is less than 100 nM on IL-17A/A and greater than 1000 nM on IL-17A/F.

For the molecule `CCn1ncnc1C(=O)N[C@H](c1cn2nc(C[C@H]3C[C@@H](C(F)(F)F)CNC3=O)c(C3CCOCC3)nc2n1)[C@H]1CC[C@H](C)CC1` [Compound 383, 1-ethyl-N—((S)-((1r,4S)-4-methylcyclohexyl)(2-(((3R,5R)-2-oxo-5-(trifluoromethyl)piperidin-3-yl)methyl)-3-(tetrahydro-2H-pyran-4-yl)imidazo[1,2-b][1,2,4]triazin-6-yl)methyl)-1H-1,2,4-triazole-5-carboxamide], the IC50 was less than 100 nM on IL-17A/A and 100 to 1000 nM on IL-17A/F.

For `CCn1ncnc1C(=O)N[C@H](c1cn2nc(C[C@H]3C[C@@H](C(F)(F)F)CNC3=O)c(C3CCOCC3)nc2n1)C(C1CC1)C1CC1` [Compound 385, N—((S)-2,2-dicyclopropyl-1-(2-(((3R,5R)-2-oxo-5-(trifluoromethyl)piperidin-3-yl)methyl)-3-(tetrahydro-2H-pyran-4-yl)imidazo[1,2-b][1,2,4]triazin-6-yl)ethyl)-1-ethyl-1H-1,2,4-triazole-5-carboxamide], the results for the IC50 on IL-17A/A and at IL-17A/F were less than 100 nM and greater than 1000 nM, respectively.

On to `CCn1ncnc1C(=O)N[C@H](c1cn2nc(C[C@H]3C[C@@H](C(F)(F)F)CNC3=O)c(C(C)C)nc2n1)C1CCC(F)(F)CC1` [Compound 386, N—((S)-(4,4-difluorocyclohexyl)(3-isopropyl-2-(((3R,5R)-2-oxo-5-(trifluoromethyl)piperidin-3-yl)methyl)imidazo[1,2-b][1,2,4]triazin-6-yl)methyl)-1-ethyl-1H-1,2,4-triazole-5-carboxamide], for which the values for the IC50 at IL-17A/A and at IL-17A/F were less than 100 nM and greater than 1000 nM, respectively.

On to `CCn1ncnc1C(=O)N[C@H](c1cn2nc(C[C@H]3C[C@H](C)CNC3=O)c(C3CCOCC3)nc2n1)C1CCC(F)(F)CC1` [Compound 387], for which the IC50 was 100 to 1000 nM at IL-17A/A and greater than 1000 nM at IL-17A/F.

For the molecule `CCn1ncnc1C(=O)N[C@H](c1cn2nc(C[C@@H]3C[C@H](C)CNC3=O)c(C3CCOCC3)nc2n1)C1CCC(F)(F)CC1` [Compound 388], the IC50 at IL-17A/A is less than 100 nM; on IL-17A/F, greater than 1000 nM.

With `CCn1nccc1C(=O)N[C@H](c1cn2nc(C[C@H]3C[C@@H](C)CNC3=O)c(C(C)C)nc2n1)C1CCC(F)(F)CC1` [Compound 389], the IC50 is 100 to 1000 nM on IL-17A/A and greater than 1000 nM on IL-17A/F.

In the case of `CCn1nccc1C(=O)N[C@H](c1cn2nc(C[C@@H]3C[C@@H](C)CNC3=O)c(C(C)C)nc2n1)C1CCC(F)(F)CC1` [Compound 390], the values for the IC50 on IL-17A/A and on IL-17A/F were less than 100 nM and 100 to 1000 nM, respectively.

With `CCn1nccc1C(=O)N[C@H](c1cn2nc(C[C@H]3C[C@H](C)CNC3=O)c(C(C)C)nc2n1)C1CCC(F)(F)CC1` [Compound 391], the IC50 is less than 100 nM at IL-17A/A and greater than 1000 nM at IL-17A/F.

In the case of `CCn1nccc1C(=O)N[C@H](c1cn2nc(C[C@@H]3C[C@H](C)CNC3=O)c(C(C)C)nc2n1)C1CCC(F)(F)CC1` [Compound 392], the IC50 at IL-17A/A is less than 100 nM; at IL-17A/F, greater than 1000 nM.

Take `CCc1nonc1C(=O)N[C@H](c1cn2nc(C[C@H]3C[C@@H](C)CNC3=O)c(C3CCOCC3)nc2n1)C1CCC(F)(F)CC1` [Compound 393]: the IC50 is 100 to 1000 nM on IL-17A/A and greater than 1000 nM on IL-17A/F.

In the case of `CCc1nonc1C(=O)N[C@H](c1cn2nc(C[C@@H]3C[C@@H](C)CNC3=O)c(C3CCOCC3)nc2n1)C1CCC(F)(F)CC1` [Compound 394], the figures for the IC50 at IL-17A/A and at IL-17A/F were less than 100 nM and greater than 1000 nM, respectively.

Take `CCc1nonc1C(=O)N[C@H](c1cn2nc(C[C@H]3C[C@H](C)CNC3=O)c(C3CCOCC3)nc2n1)C1CCC(F)(F)CC1` [Compound 395]: the IC50 on IL-17A/A was less than 100 nM; on IL-17A/F, greater than 1000 nM.

`CCc1nonc1C(=O)N[C@H](c1cn2nc(C[C@@H]3C[C@H](C)CNC3=O)c(C3CCOCC3)nc2n1)C1CCC(F)(F)CC1` [Compound 396]: the results for the IC50 at IL-17A/A and on IL-17A/F were less than 100 nM and greater than 1000 nM, respectively.

`Cc1nonc1C(=O)N[C@H](c1cn2nc(C[C@@H]3C[C@@H](C)CNC3=O)c(C3CCOCC3)nc2n1)C1CCC(F)(F)CC1` [Compound 397]: the IC50 is less than 100 nM on IL-17A/A and greater than 1000 nM at IL-17A/F.

Regarding `Cc1nonc1C(=O)N[C@H](c1cn2nc(C[C@H]3C[C@H](C)CNC3=O)c(C3CCOCC3)nc2n1)C1CCC(F)(F)CC1` [Compound 398], the results for the IC50 at IL-17A/A and on IL-17A/F were 100 to 1000 nM and greater than 1000 nM, respectively.

`Cc1nonc1C(=O)N[C@H](c1cn2nc(C[C@@H]3C[C@H](C)CNC3=O)c(C3CCOCC3)nc2n1)C1CCC(F)(F)CC1` [Compound 399]: the IC50 was less than 100 nM on IL-17A/A and greater than 1000 nM at IL-17A/F.

`Cn1nccc1C(=O)N[C@H](c1cn2nc(C[C@H]3C[C@@H](C(F)(F)F)CNC3=O)c(C3CCOCC3)nc2n1)C1CCCCC1` [Compound 405]: the IC50 on IL-17A/A was less than 100 nM; at IL-17A/F, 100 to 1000 nM.

For the molecule `CCn1nccc1C(=O)N[C@H](c1cn2nc(C[C@H]3C[C@@H](C(F)(F)F)CNC3=O)c(CN3CCOCC3)nc2n1)C(C1CC1)C1CC1` [Compound 406, N—((S)-2,2-dicyclopropyl-1-(3-(morpholinomethyl)-2-(((3R,5R)-2-oxo-5-(trifluoromethyl)piperidin-3-yl)methyl)imidazo[1,2-b][1,2,4]triazin-6-yl)ethyl)-1-ethyl-1H-pyrazole-5-carboxamide], the IC50 on IL-17A/A was less than 100 nM; on IL-17A/F it was 100 to 1000 nM.

In the case of `Cc1nonc1C(=O)N[C@H](c1cn2nc(C[C@H]3C[C@@H](C(F)(F)F)CNC3=O)c(CN3CCOCC3)nc2n1)C1CCC(F)(F)CC1` [Compound 407], the results for the IC50 on IL-17A/A and at IL-17A/F were 100 to 1000 nM and greater than 1000 nM, respectively.

As for `CCn1nccc1C(=O)N[C@H](c1cn2nc(C[C@H]3C[C@@H](C(F)(F)F)CNC3=O)c(CN3CCOCC3C)nc2n1)[C@H]1CC[C@H](C)CC1` (stereo partly drawn) [Compound 408, 1-ethyl-N-((1S)-((1r,4S)-4-methylcyclohexyl)(3-((3-methylmorpholino)methyl)-2-(((3R,5R)-2-oxo-5-(trifluoromethyl)piperidin-3-yl)methyl)imidazo[1,2-b][1,2,4]triazin-6-yl)methyl)-1H-pyrazole-5-carboxamide], the IC50 on IL-17A/A and on IL-17A/F was less than 100 nM in each case.

Turning to `CCn1ncnc1C(=O)N[C@H](c1cn2nc(C[C@H]3C[C@@H](C(F)(F)F)CNC3=O)c(C3CCOCC3)nc2n1)C1CCCCC1` [Compound 409], the IC50 was less than 100 nM on IL-17A/A and greater than 1000 nM on IL-17A/F.

As for `CCn1ncnc1C(=O)N[C@H](c1cn2nc(C[C@H]3C[C@@H](C(F)(F)F)CNC3=O)c(C3CCOCC3)nc2n1)C1CCCCCC1` [Compound 410], the IC50 is less than 100 nM on IL-17A/A and 100 to 1000 nM at IL-17A/F.

On to `Cc1nonc1C(=O)N[C@H](c1cn2nc(C[C@H]3C[C@@H](C(F)(F)F)CNC3=O)c(N3CCN(C)C4(CC4)C3)nc2n1)C1CCC(F)(F)CC1` [Compound 411, N—((S)-(4,4-difluorocyclohexyl)(3-(4-methyl-4,7-diazaspiro[2.5]octan-7-yl)-2-(((3R,5R)-2-oxo-5-(trifluoromethyl)piperidin-3-yl)methyl)imidazo[1,2-b][1,2,4]triazin-6-yl)methyl)-4-methyl-1,2,5-oxadiazole-3-carboxamide], for which the IC50 on IL-17A/A was less than 100 nM; on IL-17A/F, greater than 1000 nM.

Take `CCn1nccc1C(=O)N[C@H](c1cn2nc(C[C@H]3C[C@@H](C(F)(F)F)CNC3=O)c(CN3CCN(C)CC3)nc2n1)C1CCC(F)(F)CC1` [Compound 412, N—((S)-(4,4-difluorocyclohexyl)(3-((4-methylpiperazin-1-yl)methyl)-2-(((3R,5R)-2-oxo-5-(trifluoromethyl)piperidin-3-yl)methyl)imidazo[1,2-b][1,2,4]triazin-6-yl)methyl)-1-ethyl-1H-pyrazole-5-carboxamide]: the figures for the IC50 at IL-17A/A and at IL-17A/F were 100 to 1000 nM and greater than 1000 nM, respectively.

On to `CCn1nccc1C(=O)N[C@H](c1cn2nc(C[C@H]3C[C@@H](C(F)(F)F)CNC3=O)c(C3CCCN3C)nc2n1)C1CCC(F)(F)CC1` (stereo partly shown) [Compound 413], for which the IC50 on IL-17A/A was 100 to 1000 nM; on IL-17A/F, greater than 1000 nM.

Regarding `CC(C)(C)n1nccc1C(=O)N[C@H](c1cn2nc(C[C@H]3C[C@@H](C(F)(F)F)CNC3=O)c(C3CCOCC3)nc2n1)C1CCC(F)(F)CC1` [Compound 414, 1-(tert-butyl)-N—((S)-(4,4-difluorocyclohexyl)(2-(((3R,5R)-2-oxo-5-(trifluoromethyl)piperidin-3-yl)methyl)-3-(tetrahydro-2H-pyran-4-yl)imidazo[1,2-b][1,2,4]triazin-6-yl)methyl)-1H-pyrazole-5-carboxamide], the IC50 is less than 100 nM at IL-17A/A and greater than 1000 nM at IL-17A/F.

As for `CCn1cnnc1C(=O)N[C@H](c1cn2nc(C[C@H]3C[C@@H](C(F)(F)F)CNC3=O)c(C3CCOCC3)nc2n1)C1CCC(F)(F)CC1` [Compound 415], the IC50 at IL-17A/A was 100 to 1000 nM; at IL-17A/F, greater than 1000 nM.

In the case of `CCn1nccc1C(=O)N[C@H](c1cn2nc(C[C@H]3C[C@@H](C(F)(F)F)CNC3=O)c(N3CCOC(COC)C3)nc2n1)C1CCC(F)(F)CC1` (stereo partly drawn) [Compound 416, N-((1S)-(4,4-difluorocyclohexyl)(3-(2-(methoxymethyl)morpholino)-2-(((3R,5R)-2-oxo-5-(trifluoromethyl)piperidin-3-yl)methyl)imidazo[1,2-b][1,2,4]triazin-6-yl)methyl)-1-ethyl-1H-pyrazole-5-carboxamide], the IC50 at IL-17A/A is less than 100 nM; at IL-17A/F, 100 to 1000 nM.
